Reference: patent US20250206747A1, “COELENTERAZINE ANALOGUES” (priority 2023, published 2025)
Like-named read-outs stand apart in the source and are kept apart here.

Key:
NANOLUC® luciferase [1] = molecular target: T1, NANOLUC® luciferase (Oplophorus gracilirostris, UniProt Q9GV45, A31E/A60N/A81I/F95D/I117V/K70R/L54V/L99Q/M102K/N193R/P142E/Q151K/Q38R/Q45L/V71I/Y165I); assay: Michaelis-Menten analysis of relative luminescence produced by NANOLUC luciferase at various concentrations of coelenterazine analogues; assay type: biochemical; settings: 0.01 nM NANOLUC luciferase; for Vmax (norm): normalised to furimazine = 1; for Km: read-out: Km
NANOLUC® luciferase [2] = molecular target: T1, NANOLUC® luciferase; assay: Luminescent spectra of NANOLUC luciferase in the presence of coelenterazine analogue (peak emission); assay type: biochemical; settings: for λ max (nm): peak luminescence emission with NANOLUC luciferase
Method: FIGS. 1A-1B show kinetic and spectral properties of coelenterazine analogues. (FIG. 1A) Michaelis-Menten analysis determining the relative luminescence produced by 0.01 nM NANOLUC® luciferase at various concentrations of coelenterazine analogues. […] (FIG. 1B) Luminescent spectra of 0.5 nM NANOLUC® luciferase in the presence of 20 μM coelenterazine analogue.
Experiments were conducted during the development of embodiments herein to test the effect of derivatization on the biochemical properties of novel coelenterazine analogues. Properties tested include the analogues' ability to be utilized by NANOLUC® luciferase, as assessed through the determination of Vmax and KM, as well as the peak wavelength of luminescence emission.

T1 sequence (Q9GV45 other isoform, or with tags, fused parts or gaps with the stated changes): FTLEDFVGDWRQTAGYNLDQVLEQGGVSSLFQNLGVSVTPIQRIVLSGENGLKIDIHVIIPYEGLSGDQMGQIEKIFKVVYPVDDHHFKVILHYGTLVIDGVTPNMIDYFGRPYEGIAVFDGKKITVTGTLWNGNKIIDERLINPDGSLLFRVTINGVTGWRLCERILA

Row | SMILES | Vmax (norm) (NANOLUC® luciferase [1]; Table 1) | Vmax (norm) (NANOLUC® luciferase [1]; Table 2) | λ max (nm) (NANOLUC® luciferase [2]; Table 1) | λ max (nm) (NANOLUC® luciferase [2]; Table 2) | also measured
1 | O=c1c(Cc2ccco2)nc2c(Cc3ccccc3)[nH]c(-c3ccccc3)cn1-2 [Furimazine, reference compound] | 1 | 1 | 466 | 462 | Km (NANOLUC® luciferase [1]; Table 1): 0.23 µM; Km (NANOLUC® luciferase [1]; Table 2): 0.56 µM
2 | O=C1C(Cc2ccco2)N=C2C(c3cncc(Cl)c3)=NC(c3ccccc3)=CN12 (stereo not shown) [Compound 9812, 8-(5-chloropyridin-3-yl)-2-(furan-2-ylmethyl)-6-phenylimidazo[1,2-a]pyrazin-3(7H)-one] |  |  |  |  | shift of peak emission relative to compound 7314 (NANOLUC® luciferase [2]; reacted with NANOLUC luciferase, chloropyridin group in place of phenyl ring of 7314): red-shift the peak emission
3 | COc1cccc(-c2cn3c(=O)c(Cc4ccco4)nc-3c(-c3cnnc(Cl)c3)[nH]2)c1 [Compound 10300] | 0.000505 |  |  |  | 
4 | O=c1c(Cc2ccco2)nc2c(-c3cnnc(Cl)c3)[nH]c(-c3ccccc3)cn1-2 [Compound 9894, 8-(6-Chloropyridazin-4-yl)-2-(furan-2-ylmethyl)-6-phenylimidazo[1,2-a]pyrazin-3(7H)-one] |  |  |  |  | peak emission (λem) (NANOLUC® luciferase [2]; Scheme 1, 0.5 nM NANOLUC luciferase, 20 μM coelenterazine analogue): 622 nm
5 | O=c1c(Cc2ccco2)nc2c(-c3cnnc(Cl)c3)[nH]c(-c3cccc(F)c3)cn1-2 [Compound 10299] | 0.000505 |  | 622 |  | 
6 | O=c1c(Cc2ccco2)nc2c(-c3cnnc(Cl)c3)[nH]c(-c3cccc(F)c3F)cn1-2 [Compound 10427, 8-(6-chloropyridazin-4-yl)-6-(2,3-difluorophenyl)-2-(furan-2-ylmethyl)imidazo[1,2-a]pyrazin-3(7H)-one] |  | 0.0015 |  | 600 | 
